# Test results from publication PMC2951135 (Journal of medicinal chemistry, 2010).
# “Also recorded” adds a separate entry of the source.
# How the values were obtained:
# [1] = cited from earlier work
# [2] = system: non iron-overloaded, bile duct-cannulated rats; details: po 300 μmol/kg; cited from earlier work
# [3] = clinical trial abandoned by Genzyme; cited from earlier work
# [4] = system: iron-overloaded C. apella primates; assay: Chelator-induced iron clearance in iron-overloaded primates; assay type: in vivo, Cebus apella monkeys
# [5] = system: non iron-overloaded, bile duct-cannulated rats; assay type: in vivo, Sprague-Dawley rats
# rats [6] = assay: Ten-day toxicity trial in rats; assay type: in vivo, Sprague-Dawley rats
# rats [7] = assay: Tissue iron decorporation in rats after 10 days of dosing; assay type: in vivo, Sprague-Dawley rats
# [8] = Hydrolysis of ester 7 in rat plasma; assay type: in vitro ADME; details: 37 °C, solubilized in DMSO
# [9] = Hydrolysis of ester 7 in monkey plasma; assay type: in vitro ADME, Cebus apella monkeys; details: Cebus apella monkey plasma, 37 °C, solubilized in DMSO
# [10] = Control incubation of ester 7 with saline in place of plasma; assay type: in vitro ADME; details: 37 °C, 1 or 2 h
# [11] = pH 7.4
# [12] = po 75 μmol/kg by gavage as monosodium salt
# [13] = orally once daily 384 μmol/kg/d × 10 d
compound,measurement,setting,value
"C[C@]1(C(=O)O)CSC(c2ncccc2O)=N1 [Compound 1, (S)-4,5-dihydro-2-(3-hydroxy-2-pyridinyl)-4-methyl-4-thiazolecarboxylic acid]",nephrotoxicity,[1],severely nephrotoxic
"C[C@]1(C(=O)[O-])CSC(c2ccc(O)cc2O)=N1.[Na+] [Compound 2, (S)-2-(2,4-dihydroxyphenyl)-4,5-dihydro-4-methyl-4-thiazolecarboxylic acid]",relative percentage of the iron excreted in the bile (rodents),[2],100%
same,relative percentage of the iron excreted in the urine (rodents),[2],0%
same,toxicity that led to abandonment of the clinical trial,[3],nephrotoxicity; also recorded: renal toxicity
"COc1ccc(C2=N[C@@](C)(C(=O)[O-])CS2)c(O)c1.[Na+] [Compound 3, (S)-4,5-dihydro-2-(2-hydroxy-4-methoxyphenyl)-4-methyl-4-thiazolecarboxylic acid]",relative percentage of the iron excreted in the bile (rodents),[2],98%
same,relative percentage of the iron excreted in the urine (rodents),[2],2%
same,nephrotoxicity,[1],very nephrotoxic; also recorded: unacceptably nephrotoxic
"COCCOCCOCCOc1ccc(C2=N[C@@](C)(C(=O)O)CS2)c(O)c1 [Compound 4, (S)-4,5-dihydro-2-[2-hydroxy-4-(3,6,9-trioxadecyloxy)phenyl]-4-methyl-4-thiazolecarboxylic acid]",ICE in primates relative to the longer analogue 5,"[4]; monkey, in vivo",2.5
same,relative percentage of the iron excreted in the bile (rodents),[2],90%
same,relative percentage of the iron excreted in the urine (rodents),[2],10%
same,nephrotoxicity,[1],virtually absent of any nephrotoxicity
"COCCOCCOCCOCCOc1ccc(C2=N[C@@](C)(C(=O)[O-])CS2)c(O)c1.[Na+] [Compound 5, (S)-4,5-dihydro-2-[2-hydroxy-4-(3,6,9,12-tetraoxatridecyloxy)phenyl]-4-methyl-4-thiazolecarboxylic acid]",ICE in rodents relative to the parent 2,[5]; po 300 μmol/kg,~11 times
"COCCOCCOc1ccc(C2=N[C@@](C)(C(=O)O)CS2)c(O)c1 [Compound 6, (S)-4,5-dihydro-2-[2-hydroxy-4-(3,6-dioxaheptyloxy)phenyl]-4-methyl-4-thiazolecarboxylic acid]",Rodent Iron-Clearing Efficiency,"[5]; po 300 μmol/kg in capsules, 48 h sample collection period",> 26%
same,Primate Iron-Clearing Efficiency,[4]; [12],28.7 ± 12.4%
same,relative percentage of the iron excreted in the urine (primates),[4]; [12],17%
same,Primate Iron-Clearing Efficiency,[4]; po 75 μmol/kg in capsules,> 26%
same,relative percentage of the iron excreted in the feces (primates),[4]; po 75 μmol/kg in capsules,93%
same,Performance Ratio (mean ICEprimates/ICErodents),"[4]; primates given the monosodium salt by gavage, rodents capsules",1.1
same,histopathology,rats [6]; [13],no obvious histopathologies; also recorded: cannot be reliably differentiated histologically from the tissues from rats in Group 2; also recorded: no histological abnormalities noted between the treated and the control groups
same,reduction in pancreatic iron vs untreated controls,"rats [7]; capsules, 384 μmol/kg/d × 10 d",not when it was dosed in capsules
same,reduction in pancreatic iron vs untreated controls,"rats [7]; gavage as sodium salt, 384 μmol/kg/d × 10 d",significant reduction in pancreatic iron
"CCOC(=O)[C@@]1(C)CSC(c2ccc(OCCOCCOC)cc2O)=N1 [Compound 7, ethyl (S)-4,5-dihydro-2-[2-hydroxy-4-(3,6-dioxaheptyloxy)phenyl]-4-methyl-4-thiazolecarboxylate]",time for conversion of all of the ester to the active acid 6,[8],1 to 2 h
same,time for conversion of all of the ester to the active acid 6,[9],1 to 2 h
same,stability of the ester in saline,[10],all of the drug remained in the form of the ester
same,histopathology,rats [6]; [13],Mild to moderate vacuolar degeneration of the proximal tubular epithelial cells; also recorded: unacceptable renal toxicity
same,histopathology,rats [6]; orally once daily in capsules 192 μmol/kg/d × 10 d,no drug-related abnormalities
same,decrease in cardiac iron vs untreated controls,"rats [7]; capsules, 192 μmol/kg/d × 10 d",Neither dose was associated with a reduction in pancreatic or cardiac iron content
same,reduction in pancreatic iron vs untreated controls,"rats [7]; capsules, 192 μmol/kg/d × 10 d",Neither dose was associated with a reduction in pancreatic or cardiac iron content
same,decrease in cardiac iron vs untreated controls,"rats [7]; capsules, 384 μmol/kg/d × 10 d",Neither dose was associated with a reduction in pancreatic or cardiac iron content
same,reduction in pancreatic iron vs untreated controls,"rats [7]; capsules, 384 μmol/kg/d × 10 d",Neither dose was associated with a reduction in pancreatic or cardiac iron content
same,times more lipophilic than the parent 2,[11],"11,220 times"
